{"source": "patent US7648957B2", "about": "“Nutritional and therapeutic composition of an insulin sensitizer and a peptide fraction” (DSM IP Assets B.V., priority 2002, dated 2010)", "origin": "cited, not measured here", "key": {"[1]": {"settings": "very high glucose levels"}, "[2]": {"tested_on": "cell's response to insulin", "settings": "on administration of the chemical, estimated"}}, "data": [{"substance": "methylhydroxy chalcone polymer [MHCP]", "values": [{"measurement": "glucose levels in diabetic mice", "setting": "[1]", "value": "could normalise very high glucose levels"}, {"measurement": "rise of sensitivity to insulin", "setting": "[2]", "value": "around 20 fold"}]}]}
